Laboratory results taken from patent US20250352508A1, “PREVENTION AND TREATMENT OF POST-ACUTE INFECTION SYNDROMES” (InflammX Therapeutics, Inc., priority 2024, published 2025).
Like-named read-outs stand apart in the source and are kept apart here. Where a SMILES comes first, the peptide text is derived from it.

Tests used:
[1] = tested on: Cx43 hemichannel; conditions: glioma cells; read-out: IC50 (half maximal inhibitory concentration) for the inhibition of ATP release; cited from earlier work
[2] = molecular target: Panx1 channel (Homo sapiens, UniProt Q96RD7); conditions: cited from earlier work
Chain of Panx1 channel (Q96RD7 whole entry): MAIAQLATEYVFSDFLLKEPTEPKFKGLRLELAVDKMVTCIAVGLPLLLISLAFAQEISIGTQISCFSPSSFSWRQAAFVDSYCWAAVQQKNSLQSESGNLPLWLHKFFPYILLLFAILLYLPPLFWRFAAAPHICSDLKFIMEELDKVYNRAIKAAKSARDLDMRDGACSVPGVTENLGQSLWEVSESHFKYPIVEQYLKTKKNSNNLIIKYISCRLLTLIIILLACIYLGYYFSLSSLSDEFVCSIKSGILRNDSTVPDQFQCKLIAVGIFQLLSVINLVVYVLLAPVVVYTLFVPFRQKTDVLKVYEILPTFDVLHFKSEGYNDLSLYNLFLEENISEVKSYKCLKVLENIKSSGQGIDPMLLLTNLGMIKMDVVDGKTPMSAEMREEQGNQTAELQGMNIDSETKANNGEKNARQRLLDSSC

[3] = molecular target: gap junction (Homo sapiens, UniProt P17302); conditions: cited from earlier work
Chain of gap junction (P17302 whole entry): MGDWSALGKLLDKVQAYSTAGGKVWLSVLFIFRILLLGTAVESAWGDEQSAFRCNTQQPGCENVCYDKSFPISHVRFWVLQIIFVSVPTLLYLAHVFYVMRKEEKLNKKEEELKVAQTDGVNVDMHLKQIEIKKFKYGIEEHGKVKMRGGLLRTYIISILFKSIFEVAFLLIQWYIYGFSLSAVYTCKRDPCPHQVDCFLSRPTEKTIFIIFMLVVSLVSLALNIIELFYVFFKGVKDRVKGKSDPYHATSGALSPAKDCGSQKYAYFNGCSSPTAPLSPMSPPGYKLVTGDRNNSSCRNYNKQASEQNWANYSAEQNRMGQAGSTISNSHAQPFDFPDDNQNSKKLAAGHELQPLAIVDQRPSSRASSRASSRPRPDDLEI

[4] = molecular target: gap junctions (Homo sapiens, UniProt P08034); design: dose or concentration left out as unconfirmed; conditions: cited from earlier work
Chain of gap junctions (P08034 whole entry): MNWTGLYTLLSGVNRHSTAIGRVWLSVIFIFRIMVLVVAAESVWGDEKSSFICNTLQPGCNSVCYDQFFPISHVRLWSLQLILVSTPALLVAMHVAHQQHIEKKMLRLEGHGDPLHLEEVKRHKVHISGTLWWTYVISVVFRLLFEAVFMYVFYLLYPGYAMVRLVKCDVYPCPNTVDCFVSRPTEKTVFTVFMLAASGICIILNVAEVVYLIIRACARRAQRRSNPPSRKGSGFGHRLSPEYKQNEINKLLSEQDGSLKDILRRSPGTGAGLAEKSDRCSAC

[5] = tested on: NLRC4 inflammasome; conditions: cited from earlier work
[6] = molecular target: NLRP3 inflammasome (Homo sapiens, UniProt Q96P20); conditions: cited from earlier work
Chain of NLRP3 inflammasome (Q96P20 whole entry): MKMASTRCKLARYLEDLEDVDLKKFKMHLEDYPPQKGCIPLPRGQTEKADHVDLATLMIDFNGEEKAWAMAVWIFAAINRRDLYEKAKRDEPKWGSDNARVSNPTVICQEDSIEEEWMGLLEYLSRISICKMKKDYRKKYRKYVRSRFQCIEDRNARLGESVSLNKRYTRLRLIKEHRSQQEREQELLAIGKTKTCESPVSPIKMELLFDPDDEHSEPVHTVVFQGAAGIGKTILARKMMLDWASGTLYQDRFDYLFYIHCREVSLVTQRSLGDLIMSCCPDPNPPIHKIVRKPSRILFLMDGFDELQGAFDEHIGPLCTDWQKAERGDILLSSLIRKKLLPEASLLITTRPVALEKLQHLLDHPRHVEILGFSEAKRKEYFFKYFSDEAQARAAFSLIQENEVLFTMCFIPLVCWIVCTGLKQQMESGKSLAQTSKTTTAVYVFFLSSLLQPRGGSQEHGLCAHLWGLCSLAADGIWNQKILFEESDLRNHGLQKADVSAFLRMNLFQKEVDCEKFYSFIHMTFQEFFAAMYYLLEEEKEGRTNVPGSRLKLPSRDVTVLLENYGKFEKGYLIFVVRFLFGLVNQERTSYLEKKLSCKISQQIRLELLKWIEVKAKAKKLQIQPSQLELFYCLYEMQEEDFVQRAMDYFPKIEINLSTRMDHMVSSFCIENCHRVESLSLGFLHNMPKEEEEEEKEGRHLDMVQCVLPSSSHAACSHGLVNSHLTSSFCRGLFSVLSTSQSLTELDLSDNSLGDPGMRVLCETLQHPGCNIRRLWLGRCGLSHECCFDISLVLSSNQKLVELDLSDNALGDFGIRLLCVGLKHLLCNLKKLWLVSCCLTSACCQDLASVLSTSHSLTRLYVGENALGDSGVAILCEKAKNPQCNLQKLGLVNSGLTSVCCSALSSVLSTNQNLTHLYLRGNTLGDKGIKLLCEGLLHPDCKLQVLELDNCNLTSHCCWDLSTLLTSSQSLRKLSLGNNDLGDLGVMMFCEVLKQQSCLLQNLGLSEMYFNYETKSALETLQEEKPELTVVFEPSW

[7] = tested on: AIM2 inflammasome; conditions: cited from earlier work
[8] = Pharmacokinetics of tonabersat after single and multiple dosing, 240 to 400 mg, fasted and fed (MAD and DDI parts); type: in vivo, human; conditions: for AUC(0-inf) / half-life / Tmax: human, in vivo, oral; for AUC(0-inf): 320 mg; for half-life: read-out: geometric mean t1/2; for Tmax: read-out: median tmax
Excerpt: In some embodiments, a connexin hemichannel modulator (e.g., a connexin 43 hemichannel modulator) is provided in an amount to achieve and/or to maintain a steady state amount over a desired period of time, including some or part of a dosing regimen for use in addressing one or more signs or symptom of a post-acute infection syndrome, disorder, disease or condition. In some embodiments, the connexin hemichannel modulator (e.g., a connexin 43 hemichannel modulator) is a compound according to Formula I. In some embodiments, the connexin hemichannel modulator (e.g., a connexin 43 hemichannel modulator) is a compound according to Formula II. […] There was no evidence of time- or dose-related changes in systemic exposure of tonabersat. For a drug to show no change in its pharmacokinetic behavior on chronic dosing, the steady-state accumulation ratio (Rs) should equal unity. […] After both single and multiple dosing, Cmax and AUC increased with increasing dose in a dose-proportional manner across the dose range studied. […] Therefore, total exposure (extent of absorption) was not affected by food administration, whereas the rate of drug absorption was increased in the presence of food. […] The half-life was not affected by fed conditions.

[9] = Pharmacokinetics of tonabersat after single and repeat oral dosing, 40 and 80 mg once daily; type: in vivo, human; conditions: for half-life: human, plasma
Excerpt: In some embodiments, a connexin hemichannel modulator (e.g., a connexin 43 hemichannel modulator) is provided in an amount to achieve and/or to maintain a steady state amount over a desired period of time, including some or part of a dosing regimen for use in addressing one or more signs or symptom of a post-acute infection syndrome, disorder, disease or condition. In some embodiments, the connexin hemichannel modulator (e.g., a connexin 43 hemichannel modulator) is a compound according to Formula I. In some embodiments, the connexin hemichannel modulator (e.g., a connexin 43 hemichannel modulator) is a compound according to Formula II.

Compound: CC[C@H](C)[C@H](NC(=O)[C@H](CCC(=O)O)NC(=O)[C@@H](NC(=O)[C@H](CCC(N)=O)NC(=O)[C@@H](N)CCCCN)[C@@H](C)CC)C(=O)N[C@@H](CCCCN)C(=O)N[C@@H](CCCCN)C(=O)N[C@@H](Cc1ccccc1)C(=O)N[C@@H](CCCCN)C(=O)O [^43Gap19] (H-KQIEIKKFK-OH; N-terminus and C-terminus assumed)
- IC50 [1]: 47 µM
- effect on Panx1 channel activity (selectivity) [2]: does not affect
- effect on gap junction activity (selectivity) [3]: does not affect

Compound: GHGDPLHLEEVKC [^32Gap24]
- effect on gap junctions [4]: without affecting

Compound: CC(C)C[C@H](NC(=O)[C@H](Cc1ccccc1)NC(=O)c1c(F)cccc1F)B(O)O [NIC-102, ((R)-1-((S)-2-(2,6-difluorobenzamido)-3-phenylpropanamido)-3-methylbutyl)boronic acid]
- effect on NLRC4 inflammasome [5]: no effect
- effect on NLRP3 inflammasome activation [6]: specifically prevents
- effect on AIM2 inflammasome [7]: no effect

Compound: CC[C@H](C)[C@H](NC(=O)[C@H](CCC(=O)O)NC(=O)[C@@H](NC(=O)[C@H](CCC(N)=O)NC(=O)[C@H](CCCCN)NC(=O)[C@H](CCCNC(=N)N)NC(=O)[C@H](CCCNC(=N)N)NC(=O)[C@H](CCCNC(=N)N)NC(=O)[C@H](CCC(N)=O)NC(=O)[C@H](CCCNC(=N)N)NC(=O)[C@H](CCCNC(=N)N)NC(=O)[C@H](CCCCN)NC(=O)[C@H](CCCCN)NC(=O)[C@H](CCCNC(=N)N)NC(=O)CNC(=O)[C@@H](N)Cc1ccc(O)cc1)[C@@H](C)CC)C(=O)N[C@@H](CCCCN)C(=O)N[C@@H](CCCCN)C(=O)N[C@@H](Cc1ccccc1)C(=O)N[C@@H](CCCCN)C(=O)O [TAT-^43Gap19] (H-YGRKKRRQRRRKQIEIKKFK-OH; N-terminus and C-terminus assumed)
- IC50 [1]: 7 µM

Compound: CC(=O)c1ccc2c(c1)[C@H](NC(=O)c1ccc(F)c(Cl)c1)[C@H](O)C(C)(C)O2 [tonabersat, N-[(3S,4S)-6-acetyl-3-hydroxy-2,2-dimethyl-3,4-dihydrochromen-4-yl]-3-chloro-4-fluorobenzamide]
- half-life, effect of fed conditions ([8]; fed vs fasted): not affected
- rate of drug absorption in the presence of food ([8]; fed vs fasted): increased
- total exposure (extent of absorption), effect of food administration ([8]; fed vs fasted): not affected
- AUC(0-inf) ([8]; single dose 320 mg fasted): 285 µg·h/mL
- AUC(0-inf) ([8]; single dose 320 mg fed): 296 µg·h/mL
- half-life ([8]; after multiple dosing, Day 14): 37.5 to 41.6 h
- half-life ([8]; after single dosing): 28.9 to 37.8 h
- Tmax ([8]; single dose 240 mg, fasted): 16 h
- Tmax ([8]; single dose 320 mg, fasted): 10.5 h
- Tmax ([8]; single or multiple dosing 240 mg to 400 mg, fed (light, medium or fed)): 3 to 4 h
- accumulation of Cmax and AUC ([8]; multiple dosing 13 to 14 consecutive days, Days 13 or 14 compared to Day 1): approximately 3 fold
- Cmax and AUC increase with increasing dose ([8]; single and multiple dosing, across the dose range studied): dose-proportional
- dose proportionality of pharmacokinetics (dose-normalized Cmax and AUC(0-t)) ([9]; between 40 and 80 mg once daily, single or multiple doses): approximately dose proportional
- half-life ([9]; oral, read-out: elimination half-life): 24 to 36 h
- half-life ([9]; oral, read-out: mean half-life (converted)): ~25 h
- half-life ([9]; po, single and repeat oral dosing, read-out: terminal elimination phase T1/2): 24 to 33 h
- time tonabersat generally quantifiable in the plasma post-dose ([9]; single and repeat oral dosing): at least 96 hours
- time- or dose-related changes in systemic exposure ([9]; single and repeat oral dosing): no evidence
